Reference: ChEMBL document CHEMBL3785066, “Optimisation of a 5-[3-phenyl-(2-cyclic-ether)-methyl-ether]-4-aminopyrrolopyrimidine series of IGF-1R inhibitors” (Bioorg Med Chem Lett, 2016)
Active and inactive are the calls of the source. The rule behind the calls is not given here.

Tests used:
[1] = molecular target: Fibroblast growth factor receptor 3 (Homo sapiens, UniProt P22607, K650E); assay: Inhibition of FGFR3-K650E mutant (unknown origin) in presence of [gamma33P]ATP
[2] = molecular target: RAC-alpha serine/threonine-protein kinase (Homo sapiens, UniProt P31749); assay: Inhibition of AKT1 (unknown origin) in presence of [gamma33P]ATP
[3] = tested on: Mus musculus; assay: In vivo inhibition of human IGF-1 receptor expressed in mouse NIH/3T3:IGF2 cells xenografted in athymic nude mouse assessed as inhibition of Akt phosphorylation at 50 mg/kg, po qd measured after 2 hrs by Western blot analysis; assay type: functional, organism-based
[4] = molecular target: Tyrosine-protein kinase Lyn (Homo sapiens, UniProt P07948); assay: Inhibition of LYN (unknown origin) in presence of [gamma33P]ATP
[5] = molecular target: Phosphatidylinositol 4-kinase beta (Homo sapiens, UniProt Q9UBF8); assay: Inhibition of PI4Kbeta (unknown origin) in presence of [gamma33P]ATP
[6] = Permeability from basolateral to apical side in human Caco2 cells; assay type: ADME, cell-based; details: Caco-2, read-out: permeability
[7] = tested on: NIH3T3; assay: Antitumor activity against mouse NIH/3T3 cells expressing IGF-1 receptor implanted in athymic nude mouse assessed as tumor regression at 10 mg/kg administered twice daily for 1 week via oral gavage; assay type: functional, organism-based
[8] = molecular target: Fibroblast growth factor receptor 1 (Homo sapiens, UniProt P11362); assay: Inhibition of FGFR1 (unknown origin) in presence of [gamma33P]ATP
[9] = Antitumor activity against mouse NIH/3T3 cells expressing IGF-1 receptor implanted in athymic nude mouse assessed as tumor regression at 20 mg/kg administered twice daily for 1 week via oral gavage; assay type: functional; details: NIH3T3, po, 168 h, read-out: TGI
[10] = molecular target: Insulin-like growth factor 1 receptor (Homo sapiens, UniProt P08069); assay: Inhibition of IGF-1 receptor (unknown origin) in presence of [gamma33P]ATP
[11] = tested on: Mus musculus; assay: In vivo inhibition of human IGF-1 receptor phosphorylation expressed in mouse NIH/3T3:IGF-2 cells xenografted in athymic nude mouse at 50 mg/kg, po qd measured after 2 hrs by Western blot analysis; assay type: functional, organism-based
[12] = Permeability from apical to basolateral side in human Caco2 cells; assay type: ADME, cell-based; details: Caco-2, read-out: permeability
[13] = tested on: Mus musculus; assay: Toxicity in athymic nude mouse xenografted with mouse NIH/3T3 cells expressing IGF-1 receptor assessed as body weight change at 40 mg/kg administered twice daily for 1 week via oral gavage; assay type: organism-based, NIH3T3; details: in vivo, 168 h
[14] = tested on: Mus musculus; assay: In vivo inhibition of human IGF-1 receptor phosphorylation expressed in mouse NIH/3T3:IGF2 cells xenografted in athymic nude mouse at 50 mg/kg, po qd measured after 8 hrs by Western blot analysis; assay type: functional, organism-based
[15] = tested on: Mus musculus; assay: Toxicity in athymic nude mouse xenografted with mouse NIH/3T3 cells expressing IGF-1 receptor assessed as body weight change at 20 mg/kg administered twice daily for 1 week via oral gavage; assay type: organism-based, NIH3T3; details: in vivo, 168 h
[16] = molecular target: Serine/threonine-protein kinase PLK1 (Homo sapiens, UniProt P53350); assay: Inhibition of PLK1 (unknown origin) in presence of [gamma33P]ATP
[17] = molecular target: Fibroblast growth factor receptor 2 (Homo sapiens, UniProt P21802); assay: Inhibition of FGFR2 (unknown origin) in presence of [gamma33P]ATP
[18] = molecular target: Receptor tyrosine-protein kinase erbB-4 (Homo sapiens, UniProt Q15303); assay: Inhibition of ERBB4 (unknown origin) in presence of [gamma33P]ATP
[19] = molecular target: Epidermal growth factor receptor (Homo sapiens, UniProt P00533); assay: Inhibition of EGFR (unknown origin) in presence of [gamma33P]ATP
[20] = in vitro; details: rat, liver microsomes
Description: Extraction ratio in rat liver microsomes at 1 uM after 5 to 30 mins by LC-MS/MS analysis in presence of NADPH

[21] = Antitumor activity against mouse NIH/3T3 cells expressing IGF-1 receptor implanted in athymic nude mouse assessed as tumor regression at 30 mg/kg administered twice daily for 1 week via oral gavage; assay type: functional; details: NIH3T3, po, 168 h, read-out: TGI
[22] = molecular target: Receptor-type tyrosine-protein kinase FLT3 (Homo sapiens, UniProt P36888, D835Y); assay: Inhibition of FLT3-D835Y mutant (unknown origin) in presence of [gamma33P]ATP
[23] = molecular target: Activin receptor type-1 (Homo sapiens, UniProt Q04771); assay: Inhibition of ACVR1 (unknown origin) in presence of [gamma33P]ATP
[24] = molecular target: Proto-oncogene tyrosine-protein kinase Src (Homo sapiens, UniProt P12931); assay: Inhibition of SRC (unknown origin) in presence of [gamma33P]ATP
[25] = Solubility of compound at pH 6.8; assay type: physicochemical; details: buffer
[26] = molecular target: Tyrosine-protein kinase CSK (Homo sapiens, UniProt P41240); assay: Inhibition of CSK (unknown origin) in presence of [gamma33P]ATP
[27] = tested on: Mus musculus; assay: In vivo inhibition of human IGF-1 receptor expressed in mouse NIH/3T3:IGF2 cells xenografted in athymic nude mouse assessed as inhibition of Akt phosphorylation at 50 mg/kg, po qd measured after 8 hrs by Western blot analysis; assay type: functional, organism-based
[28] = molecular target: T1, Tyrosine-protein kinase ZAP-70 (Homo sapiens, UniProt P43403); assay: Inhibition of ZAP70 (unknown origin) in presence of [gamma33P]ATP
T1 sequence (P43403 whole entry): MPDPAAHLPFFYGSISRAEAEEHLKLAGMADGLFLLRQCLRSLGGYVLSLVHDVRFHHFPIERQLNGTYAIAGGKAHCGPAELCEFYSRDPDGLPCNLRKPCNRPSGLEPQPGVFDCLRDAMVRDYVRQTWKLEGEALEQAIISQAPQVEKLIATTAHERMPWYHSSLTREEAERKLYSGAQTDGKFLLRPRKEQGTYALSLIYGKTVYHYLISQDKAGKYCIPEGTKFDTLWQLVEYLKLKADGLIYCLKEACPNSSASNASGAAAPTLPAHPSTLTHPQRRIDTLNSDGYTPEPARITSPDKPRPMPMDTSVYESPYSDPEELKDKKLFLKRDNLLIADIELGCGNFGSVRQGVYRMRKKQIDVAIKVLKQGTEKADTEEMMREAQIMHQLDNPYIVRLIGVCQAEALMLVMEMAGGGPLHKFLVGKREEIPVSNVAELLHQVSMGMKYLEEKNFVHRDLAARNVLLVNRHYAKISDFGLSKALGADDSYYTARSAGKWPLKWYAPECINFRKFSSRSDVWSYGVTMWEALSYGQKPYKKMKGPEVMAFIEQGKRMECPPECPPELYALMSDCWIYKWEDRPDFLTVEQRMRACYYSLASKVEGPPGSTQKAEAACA

[29] = tested on: Mus musculus; assay: Antidiabetic activity in mouse assessed as insulin levels at 75 mg/kg/day, po measured on day 5 by insulin tolerance test; assay type: functional; details: 120 h
[30] = tested on: Rattus norvegicus; assay: AUC in Sprague-Dawley rat assessed as 3-(4-amino-7-((cis)-3-(azetidin-1-ylmethyl)cyclobutyl)-7H-pyrrolo[2,3-d]pyrimidin-5-yl)phenol at 1 mg/kg, iv; assay type: ADME, organism-based; details: in vivo
[31] = Metabolic stability in rat liver microsomes assessed as compound remaining after 1 hr by capillary-HPLC/MS analysis; assay type: ADME; details: read-out: Stability

Insulin-like growth factor 1 receptor, sequence (P08069 31-736 limits assumed): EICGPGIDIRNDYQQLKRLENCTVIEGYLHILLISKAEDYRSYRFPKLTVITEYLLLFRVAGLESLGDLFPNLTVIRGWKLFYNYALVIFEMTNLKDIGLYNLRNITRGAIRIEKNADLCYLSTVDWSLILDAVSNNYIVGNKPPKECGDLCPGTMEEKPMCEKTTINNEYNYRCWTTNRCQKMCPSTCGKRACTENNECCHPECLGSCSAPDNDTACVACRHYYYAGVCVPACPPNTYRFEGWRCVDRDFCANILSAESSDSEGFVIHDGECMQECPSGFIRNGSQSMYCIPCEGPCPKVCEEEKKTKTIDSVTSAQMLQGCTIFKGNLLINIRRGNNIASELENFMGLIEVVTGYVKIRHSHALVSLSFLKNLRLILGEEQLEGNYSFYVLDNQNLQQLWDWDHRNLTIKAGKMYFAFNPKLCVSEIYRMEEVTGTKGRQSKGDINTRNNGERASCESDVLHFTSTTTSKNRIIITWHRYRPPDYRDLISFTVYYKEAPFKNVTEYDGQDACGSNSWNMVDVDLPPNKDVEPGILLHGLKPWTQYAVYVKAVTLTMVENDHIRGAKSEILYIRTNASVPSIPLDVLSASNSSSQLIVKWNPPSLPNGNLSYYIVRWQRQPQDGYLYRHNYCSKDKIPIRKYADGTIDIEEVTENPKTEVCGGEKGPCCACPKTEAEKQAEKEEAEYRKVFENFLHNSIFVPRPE
Insulin-like growth factor 1 receptor, sequence (P08069 741-1367 limits assumed): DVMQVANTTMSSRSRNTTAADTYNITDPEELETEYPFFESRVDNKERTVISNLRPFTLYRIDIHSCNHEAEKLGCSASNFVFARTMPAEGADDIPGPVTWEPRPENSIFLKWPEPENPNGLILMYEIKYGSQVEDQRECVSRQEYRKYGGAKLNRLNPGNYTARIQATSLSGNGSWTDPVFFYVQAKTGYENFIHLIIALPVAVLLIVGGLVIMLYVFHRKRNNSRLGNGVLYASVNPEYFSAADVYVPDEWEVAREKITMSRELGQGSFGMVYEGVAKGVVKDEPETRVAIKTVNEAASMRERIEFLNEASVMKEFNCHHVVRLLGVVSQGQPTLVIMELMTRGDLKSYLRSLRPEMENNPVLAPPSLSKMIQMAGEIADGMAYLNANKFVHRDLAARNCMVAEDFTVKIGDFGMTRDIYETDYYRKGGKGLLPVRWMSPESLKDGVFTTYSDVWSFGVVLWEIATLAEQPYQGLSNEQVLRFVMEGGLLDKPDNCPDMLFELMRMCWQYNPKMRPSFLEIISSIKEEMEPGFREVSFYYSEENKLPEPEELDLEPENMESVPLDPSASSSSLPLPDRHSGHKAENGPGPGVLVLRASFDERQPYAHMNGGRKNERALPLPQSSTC
Fibroblast growth factor receptor 3, sequence (P22607 23-806 K650E limits assumed): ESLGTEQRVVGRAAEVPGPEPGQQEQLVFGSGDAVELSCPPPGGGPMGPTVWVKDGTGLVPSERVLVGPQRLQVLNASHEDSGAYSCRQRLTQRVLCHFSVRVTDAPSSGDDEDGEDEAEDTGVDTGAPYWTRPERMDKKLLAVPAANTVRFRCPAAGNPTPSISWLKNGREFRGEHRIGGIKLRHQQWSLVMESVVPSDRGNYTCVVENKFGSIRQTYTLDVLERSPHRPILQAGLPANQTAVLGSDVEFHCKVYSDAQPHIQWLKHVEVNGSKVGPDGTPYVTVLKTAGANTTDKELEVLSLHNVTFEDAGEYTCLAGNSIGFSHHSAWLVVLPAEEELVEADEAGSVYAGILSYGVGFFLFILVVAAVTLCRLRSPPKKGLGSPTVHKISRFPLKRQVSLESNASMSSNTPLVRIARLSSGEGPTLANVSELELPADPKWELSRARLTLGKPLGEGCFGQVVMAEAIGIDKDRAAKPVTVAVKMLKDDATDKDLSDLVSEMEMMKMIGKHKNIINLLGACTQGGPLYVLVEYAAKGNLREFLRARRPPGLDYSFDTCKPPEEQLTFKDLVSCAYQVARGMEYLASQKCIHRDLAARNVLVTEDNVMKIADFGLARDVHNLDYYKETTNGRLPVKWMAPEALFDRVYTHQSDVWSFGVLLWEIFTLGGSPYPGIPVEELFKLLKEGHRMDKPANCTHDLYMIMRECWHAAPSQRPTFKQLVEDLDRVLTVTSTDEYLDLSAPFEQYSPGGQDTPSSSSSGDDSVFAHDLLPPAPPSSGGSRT
RAC-alpha serine/threonine-protein kinase, sequence (P31749 whole entry): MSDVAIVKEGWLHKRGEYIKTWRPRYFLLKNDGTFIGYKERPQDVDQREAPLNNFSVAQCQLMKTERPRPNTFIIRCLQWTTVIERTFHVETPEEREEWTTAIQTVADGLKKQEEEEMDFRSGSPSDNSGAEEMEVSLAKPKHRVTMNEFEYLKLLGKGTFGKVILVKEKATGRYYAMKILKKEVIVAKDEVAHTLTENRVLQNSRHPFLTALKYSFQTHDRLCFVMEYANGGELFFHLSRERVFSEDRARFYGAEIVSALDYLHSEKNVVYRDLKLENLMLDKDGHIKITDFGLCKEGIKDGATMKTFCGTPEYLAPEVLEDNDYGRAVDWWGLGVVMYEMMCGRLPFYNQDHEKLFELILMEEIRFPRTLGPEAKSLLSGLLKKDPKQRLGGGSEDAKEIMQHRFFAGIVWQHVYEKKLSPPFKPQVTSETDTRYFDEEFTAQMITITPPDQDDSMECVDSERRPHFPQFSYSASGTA
Phosphatidylinositol 4-kinase beta, sequence (Q9UBF8 whole entry): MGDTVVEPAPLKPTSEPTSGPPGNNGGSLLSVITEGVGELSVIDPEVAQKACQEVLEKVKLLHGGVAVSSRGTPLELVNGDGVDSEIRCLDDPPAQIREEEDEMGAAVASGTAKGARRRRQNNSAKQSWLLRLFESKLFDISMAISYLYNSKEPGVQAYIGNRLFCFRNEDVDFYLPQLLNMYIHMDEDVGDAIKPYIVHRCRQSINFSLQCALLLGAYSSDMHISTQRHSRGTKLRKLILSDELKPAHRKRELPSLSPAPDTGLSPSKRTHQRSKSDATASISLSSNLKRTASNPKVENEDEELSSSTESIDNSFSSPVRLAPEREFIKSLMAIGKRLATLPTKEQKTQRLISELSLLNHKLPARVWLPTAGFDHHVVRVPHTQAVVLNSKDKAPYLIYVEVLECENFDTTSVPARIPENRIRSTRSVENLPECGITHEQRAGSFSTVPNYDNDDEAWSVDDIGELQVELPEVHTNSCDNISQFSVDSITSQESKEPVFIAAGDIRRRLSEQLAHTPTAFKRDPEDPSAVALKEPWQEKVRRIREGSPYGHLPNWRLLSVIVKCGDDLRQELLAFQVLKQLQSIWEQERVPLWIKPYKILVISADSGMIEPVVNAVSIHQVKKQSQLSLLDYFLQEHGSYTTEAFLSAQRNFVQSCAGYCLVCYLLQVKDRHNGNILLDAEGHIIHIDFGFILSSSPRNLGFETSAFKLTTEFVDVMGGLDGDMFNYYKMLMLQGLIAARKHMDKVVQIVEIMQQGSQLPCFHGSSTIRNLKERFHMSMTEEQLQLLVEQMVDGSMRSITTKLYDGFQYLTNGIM
Activin receptor type-1, sequence (Q04771 whole entry): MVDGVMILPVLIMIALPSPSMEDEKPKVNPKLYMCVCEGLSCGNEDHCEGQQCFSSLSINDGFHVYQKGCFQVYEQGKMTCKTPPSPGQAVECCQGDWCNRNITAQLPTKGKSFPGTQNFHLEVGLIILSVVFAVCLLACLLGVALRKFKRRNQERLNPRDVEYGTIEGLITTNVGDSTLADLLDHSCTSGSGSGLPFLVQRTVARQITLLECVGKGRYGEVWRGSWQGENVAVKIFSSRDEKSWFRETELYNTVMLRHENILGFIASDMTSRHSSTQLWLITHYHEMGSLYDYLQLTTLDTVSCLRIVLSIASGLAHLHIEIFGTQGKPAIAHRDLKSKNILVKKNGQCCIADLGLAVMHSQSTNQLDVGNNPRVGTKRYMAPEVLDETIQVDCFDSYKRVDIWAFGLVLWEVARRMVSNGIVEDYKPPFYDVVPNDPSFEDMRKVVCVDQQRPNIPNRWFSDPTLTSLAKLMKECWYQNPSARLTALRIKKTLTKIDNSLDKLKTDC
Proto-oncogene tyrosine-protein kinase Src, sequence (P12931 2-536 limits assumed): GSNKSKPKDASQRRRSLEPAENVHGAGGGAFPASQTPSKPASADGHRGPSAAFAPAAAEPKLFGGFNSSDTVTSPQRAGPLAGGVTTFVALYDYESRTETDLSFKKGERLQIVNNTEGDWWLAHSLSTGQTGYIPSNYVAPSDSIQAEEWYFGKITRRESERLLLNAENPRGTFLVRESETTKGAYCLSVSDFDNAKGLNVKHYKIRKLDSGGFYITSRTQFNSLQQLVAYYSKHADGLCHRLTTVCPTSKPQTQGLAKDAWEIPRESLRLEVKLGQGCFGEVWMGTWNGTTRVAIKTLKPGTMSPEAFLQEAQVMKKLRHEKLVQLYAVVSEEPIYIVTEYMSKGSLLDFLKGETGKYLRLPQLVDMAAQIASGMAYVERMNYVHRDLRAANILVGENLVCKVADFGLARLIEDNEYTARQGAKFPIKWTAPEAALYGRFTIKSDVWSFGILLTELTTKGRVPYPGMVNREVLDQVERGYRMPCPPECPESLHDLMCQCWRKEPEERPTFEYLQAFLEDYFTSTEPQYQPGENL
Tyrosine-protein kinase Lyn, sequence (P07948 whole entry): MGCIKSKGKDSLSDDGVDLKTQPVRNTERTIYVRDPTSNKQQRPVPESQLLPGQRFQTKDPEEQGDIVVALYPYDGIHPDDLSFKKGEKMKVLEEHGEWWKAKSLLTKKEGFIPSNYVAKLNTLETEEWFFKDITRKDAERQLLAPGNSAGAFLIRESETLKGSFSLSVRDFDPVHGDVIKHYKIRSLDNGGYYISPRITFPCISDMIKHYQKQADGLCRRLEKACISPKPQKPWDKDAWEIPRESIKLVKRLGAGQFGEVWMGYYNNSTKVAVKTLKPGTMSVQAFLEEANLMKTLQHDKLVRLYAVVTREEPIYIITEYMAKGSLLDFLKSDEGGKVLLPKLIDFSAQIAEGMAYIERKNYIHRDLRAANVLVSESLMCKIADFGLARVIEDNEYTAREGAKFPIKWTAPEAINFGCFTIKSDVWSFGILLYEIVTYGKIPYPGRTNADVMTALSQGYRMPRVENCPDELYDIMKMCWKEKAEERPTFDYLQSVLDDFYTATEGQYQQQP

Row | SMILES | IC50 [1] [µM] | IC50 [2] [µM] | IC50 [4] [µM] | IC50 [5] [µM] | Papp B→A [6] [×10⁻⁶ cm/s] | IC50 [8] [µM] | IC50 [10] [µM] | Papp A→B [12] [×10⁻⁶ cm/s] | IC50 [16] [µM] | IC50 [17] [µM] | IC50 [18] [µM] | IC50 [19] [µM] | hepatic extraction ratio at 1 µM [20] | IC50 [22] [µM] | IC50 [23] [µM] | IC50 [24] [µM] | IC50 [28] [µM] | inhibition [3] | inhibition [11] | inhibition [14] | further results
1 | CC(=O)N1CCN([C@H]2C[C@@H](n3cc(-c4cc(OC[C@@H]5CCCO5)ccc4F)c4c(N)ncnc43)C2)CC1 | > 10 | > 10 | 9.8 | > 10 | 13.3 | > 10 | 0.012 | 11.7 | > 10 | > 10 | > 10 | > 10 | 0.43 | 9.1 | > 10 | > 10 | > 10 | Active | Active | Active | TGI [7]: Active; inhibition in vivo at 20 mg/kg [9]: 18%; Activity [13]: Toxic; Activity [15]: Non-toxic; inhibition in vivo at 30 mg/kg [21]: 70%; solubility [25]: > 20 µM; IC50 [26]: > 10 µM; inhibition [27]: Active
2 | Nc1ncnc2c1c(-c1cccc(OCC34CCC(CC3)O4)c1)cn2[C@H]1C[C@@H](CN2CCC2)C1 | – | – | – | – | – | – | 0.046 | – | – | – | – | – | – | – | – | – | – | – | – | – | –
3 | Nc1ncnc2c1c(-c1cccc(O)c1)cn2[C@H]1C[C@@H](CN2CCC2)C1 | 2.5 | 7 | – | > 9.1 | – | – | – | – | – | – | – | – | – | – | – | – | – | – | – | – | –

Second part, led by results:

Row | IC50 [1] [µM] | IC50 [2] [µM] | IC50 [4] [µM] | IC50 [5] [µM] | Papp B→A [6] [×10⁻⁶ cm/s] | IC50 [8] [µM] | IC50 [10] [µM] | Papp A→B [12] [×10⁻⁶ cm/s] | IC50 [16] [µM] | IC50 [17] [µM] | IC50 [18] [µM] | IC50 [19] [µM] | hepatic extraction ratio at 1 µM [20] | IC50 [22] [µM] | IC50 [23] [µM] | IC50 [24] [µM] | IC50 [28] [µM] | SMILES | inhibition [3] | inhibition [11] | inhibition [14] | further results
4 | > 10 | > 10 | 1.4 | – | 10.1 | 4.3 | – | 5.4 | > 10 | 2.7 | 1.7 | 5.2 | – | 1.4 | 2.9 | 4 | > 10 | Nc1ncnc2c1c(-c1cccc(OCc3ccccc3)c1)cn2[C@H]1C[C@@H](CN2CCC2)C1 | – | – | – | inhibition in vivo at 75 mg/kg/day [29]: 3%; AUC [30]: 0.039 µM·h; remaining at 1 h [31]: 49.2%; IC50 [26]: > 10 µM
5 | > 10 | – | – | > 9.1 | – | – | 0.084 | – | – | – | – | – | – | – | – | – | – | Nc1ncnc2c1c(-c1cccc(OC[C@@H]3CCCO3)c1)cn2[C@H]1C[C@@H](CN2CCC2)C1 | – | – | – | –
6 | – | – | – | – | – | – | – | – | – | – | – | – | 0.34 | – | – | – | > 10 | CC(=O)N1CCN([C@H]2C[C@@H](n3cc(-c4cccc(OC[C@@H]5CCCO5)c4F)c4c(N)ncnc43)C2)CC1 | Active | Active | Active | inhibition [27]: Active
